The text below walks through data of paper PMC11232401, “Characterization of antimalarial activity of artemisinin-based hybrid drugs” (Antimicrobial Agents and Chemotherapy, 2024).

One test has as its system P. berghei-infected mice. Set-up: method as in PMID 31290221, PMID 34832911, PMID 38559731. As to conditions: Peters test; cited from earlier work.
For test [1], the system named is D10 strain of P. falciparum. In words: Host cell-mediated drug degradation: antiplasmodial activity of uRBC supernatants. The format is cell-based, Plasmodium falciparum. As to conditions: uRBC 1.0% hematocrit; for IC50: Plasmodium falciparum, 0.16 h, D10, pLDH, median ± SEM, read-out: IC50 of supernatants harvested at 0.16 h; for Fold changes (24 h/0.16 h): D10. Here is the method:
(§1) Each well of 96-well plates was filled with 125 µL drug (1000 nM) and 125 µL uninfected red blood cells (uRBC), which were mixed to obtain a final drug concentration of 500 nM and 2.5% or 1.0% hematocrit. The plates were incubated at 37°C in the standard gas mixture. After each time point (10 min, 6 h, and 24 h), supernatants were carefully harvested and stored at −80°C until use. Untreated uRBC incubated at the same times were used as negative controls, and DHA and AQ were employed as standard drugs. Next, supernatants were diluted in a complete medium in six different dilutions and were aliquoted in new plates. The antimalarial activity of these supernatants and freshly dissolved drugs was determined in an asynchronous parasite culture of P. falciparum (3D7, D10, and W2 strains) for 72 h using the same method described above, and parasite viability was assessed by the pLDH ([38]) and SYBR Green I ([41]) methods. Only the experiments where the IC50 values of the supernatants harvested at 10 min were the same as those of the respective fresh drugs were considered for determining equivalent drug concentration. […] Decay in drug concentration was estimated by using the normalized slope values calculated from linear regression fits using the slope values of a standard curve as reference. Three independent experiments were performed using two replicates.
(§2) Figure S5: Data associated to Figure 3 in the main text of the manuscript. Panel A: Representative response-concentration curves of the antiplasmodial activity of supernatant-derived uRBC (2.5% hematocrit) harvested at indicated times (0.16, 6, and 24 h). Drug activity on parasite viability was determined 72 h after parasite incubation (3D7 strain, asynchronous). Values were subtracted from control (without treatment), transformed, and normalized to calculate nonlinear fit. Parasite viability was determined by SYBR Green I. Values are mean and error bars are the standard deviation of a single experiment, each concentration in duplicate. Panel B: A table summarizing the IC50 values. Footnotes: ^[a] Parasite viability was determined by SYBR Green I. ^[b^] Parasite viability was determined by pLDH readout. Values are median ± SEM of three independent experiments, each concentration in duplicate. ^[c^] […] These values are expressed as mean and 95% confidence interval (CI) of one experiment, each concentration in duplicate. AQ = amodiaquine; DHA = dihydroartemisinin; uRBC = uninfected red blood cells. Unpaired two-tailed t-test at 95% CI: *p <0.05; **p <0.01.

In test [2] the test system is W2 strain (CQ-resistant) of P. falciparum. The description is as above. As to conditions: uRBC 1.0% hematocrit; for Fold changes (24 h/0.16 h): W2; for IC50: Plasmodium falciparum, 0.16 h, W2, pLDH, median ± SEM, read-out: IC50 of supernatants harvested at 0.16 h. It is filed as cell-based, Plasmodium falciparum. How it is done: as §1, §2
Another test concerns P. falciparum Dd2 strain. Also on record: method as in PMID 31290221, PMID 34832911, PMID 38559731. As to conditions: asynchronous culture, SYBR Green I; read-out: IC50 (nM, median ± SEM) for P. falciparum Dd2 strain; cited from earlier work.
Test [3] relates to hematin (iron III)-initiated β-hematin formation. Briefly: β-hematin inhibitory activity under oxidizing condition (O-BHIA). It is filed as biochemical. As to conditions: hematin as starting reagent; mean (95% CI). How it is done: The compounds were dissolved in DMSO and diluted in DMSO to six different concentrations (1.0–32 mM). Hemin (Fe^III[PPIX]Cl) (BioXtra, Sigma-Aldrich) was first dissolved in 0.1 M NaOH and then suspended in an 80:20 vol/vol mixture of DMSO and propionate buffer (0.1 M, pH 5.6) to a stock solution at 8 mM. Reduced glutathione (GSH) was dissolved in 0.1 M NaOH and then adjusted to 10 mM using propionate buffer (0.1 M, pH 5.6). For β-hematin inhibitory activity (BHIA) under the reducing condition (R-BHIA), hemin (10 µL) and GSH (10 µL) were distributed in a 96-well plate and homogenized, and the plates were sealed using a thin plastic film and incubated for 1 h at 37°C. Then, 20 µL of the drug was added, and the plates were incubated for 2 h at 37°C. The plastic film was removed after drug incubation, 160 µL propionate buffer (1.0 M, pH 5.6) was added, and plates were incubated for 18 h at 37°C. BHIA under the oxidizing condition (O-BHIA) was prepared in parallel without adding GSH. Controls included wells without drugs and wells containing PBS 1× instead of propionate buffer. Afterward, the plates were centrifuged, the supernatant was discarded, and the pellets of β-hematin crystals were washed twice with pure DMSO and then water. The resulting β-hematin crystals were then dissolved in 200 µL 0.1 M NaOH and diluted to a 1:8 ratio. Aliquots were then transferred into a new plate and read by UV-visible absorbance at […]. Percent of BHIA was calculated in comparison to untreated wells (no drugs), and IC50 was then calculated. Two independent experiments were performed using three replicates of each drug concentration ([46]).
Figure S6: A summary of IC50 values derived from β-hematin inhibitory activity (BHIA). Footnotes for table: ^[a,b^] Values are mean and 95% confidence interval of one experiment, each concentration in triplicate. ^[a] Using heme (Fe[II]PPIX[Cl]) as a starting reagent. ^[b] Using hematin (Fe[III]PPIX[OH]) as a starting reagent. ^[c] […] CQ = chloroquine. R-BHIA = reducing β-hematin inhibitory activity. O-BHIA = oxidizing β-hematin inhibitory activity.

The next test concerns P. falciparum 3D7 strain. Set-up: method as in PMID 31290221, PMID 34832911, PMID 38559731. Conditions: asynchronous culture, SYBR Green I; read-out: IC50 (nM, median ± SEM) for P. falciparum 3D7 strain; cited from earlier work.

Some results are limits rather than exact numbers.

In the case of `COCCOCCOCCOCCn1c(-c2ccc(-n3cc(-c4ccc(OC5OC6OC7(C)CCC8C(C)CCC(C5C)C68OO7)cc4)nn3)cc2)nc2ccccc21` (stereo not shown) [Hybrid 1], the “In vivo parasitemia reduction (%)” value in the test with P. berghei-infected mice is given as greater than 99%. Further, the half-inhibitory concentration (IC50) – broadly, the midpoint of a concentration-inhibition curve – is 0.0018 ± 8e-05 µM in test [1], 3 ± 0.3 nM in the test with P. falciparum Dd2 strain, greater than 1000 µM in test [3] and 3 ± 0.2 nM in the test on P. falciparum 3D7 strain. Further, the “Fold changes (24 h/0.16 h)” value is given as 0.90 ± 0.08 in test [1] and 0.98 ± 0.22 in test [2].
As to `C[C@H]1[C@@H](O)O[C@@H]2O[C@@]3(C)CC[C@H]4[C@H](C)CC[C@@H]1[C@@]24OO3` [DHA, dihydroartemisinin, reference compound], the IC50 in test [1] is 0.0035 ± 0.00043 µM; in test [2] it was 0.0019 ± 0.00025 µM; in test [3] it was greater than 1000 µM. In addition, the “Fold changes (24 h/0.16 h)” value in test [1] amounted to 19.9 ± 0.09; in test [2], 15.82 ± 2.21.
Consider `CC1CCC2C(C)C(OC(=O)CCC(=O)OCCNc3ccnc4cc(Cl)ccc34)OC3OC4(C)CCC1C32OO4` (stereo not shown) [Hybrid 2], for which the “In vivo parasitemia reduction (%)” value in the test on P. berghei-infected mice is 89.4 ± 1.5%. The IC50 in test [1] is 0.0037 ± 0.00132 µM; in test [2], 0.0043 ± 0.00174 µM; in the test on P. falciparum Dd2 strain, 2.3 ± 0.6 nM; in the test on P. falciparum 3D7 strain, 4.5 ± 0.5 nM. Further, the “Fold changes (24 h/0.16 h)” value worked out at 1.25 ± 0.46 in test [1] and 1.38 ± 0.15 in test [2].
